SMILES strings stand for the structures. In brackets after ≈: the same amount, converted by molar mass. Results filed as inconclusive are left out. Activity calls are given as the source filed them. How the calls were made is not given here.

The assay has as its system M. tuberculosis H37Rv growth inhibition. As to the kind of experiment: Confirmatory growth inhibition assay against Mycobacterium tuberculosis H37Rv, potency (AID 1949).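 Further: bacteria grown 7 days with compound before Alamar blue readout.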

Broadly, the IC50 is the point on the concentration scale where inhibition reaches its midpoint. Regarding `CCN1CCN(c2ccc(NC(=O)c3cc4ccccc4cc3OC)cc2Cl)CC1`, the IC50 was 23.9 µg/mL (≈ 56.5 µM). The value for `CCn1c2ccccc2c2cc(CN3CCC(N4CCN(c5ccccc5OC)CC4)CC3)ccc21` was 22.4 µg/mL (≈ 46.4 µM); that for `c1ccc(COc2ccc(OCCn3ccnc3)cc2)cc1` was 10.4 µg/mL (≈ 35.2 µM).

Consider `CCOC(=O)c1cc(-c2ccccc2)sc1NC(=S)NC(C)c1ccncc1` (configuration not stated), for which the IC50 is 1.47 µg/mL (≈ 3.57 µM). The value for `CC(=O)Oc1c(C(=O)c2ccccc2)sc2ccccc12` was 0.71 µg/mL (≈ 2.4 µM). To `S=C(NCc1ccc(Cl)cc1)N1CCN(C/C=C/c2ccccc2)CC1` belongs 1.99 µg/mL (≈ 5.16 µM); to `CCC(Sc1nc2ccccc2o1)C(=O)Nc1nnc(C)s1` (configuration not stated), 0.75 µg/mL (≈ 2.24 µM).

As to `COC(=O)Cc1c(C)c2ccc(OCC(=O)OCc3ccccc3)c(C)c2oc1=O`, the IC50 was 0.11 µg/mL (≈ 0.268 µM).

As to `CC(C)C1C(c2ccccc2)NC(c2ccccc2)CC1(O)c1ccc(F)cc1` (configuration not stated), the IC50 is 10.1 µg/mL (≈ 25.9 µM).

For the compound `O=C(CSc1ccc(F)cc1)Nc1ccc2c(c1)OCCO2`, the IC50 is 7.01 µg/mL (≈ 22 µM). To `CCOC(=O)COc1ccc2c(=O)c(Oc3ccccc3Cl)coc2c1` belongs 2.08 µg/mL (≈ 5.55 µM). To `Cc1oc2ccc(OCC(=O)OCc3ccccc3)cc2c1C(=O)OC(C)C` belongs 9.08 µg/mL (≈ 23.7 µM); to `c1ccc(COc2ccc3ccccc3c2CNCc2cccnc2)cc1`, 7.91 µg/mL (≈ 22.3 µM). To `FC(F)(F)c1ccccc1Nc1nc(-c2ccccn2)cs1` belongs < 0.1 µg/mL; to `O=C(CCNc1ccc(F)c(Cl)c1)c1cccs1`, 4.3 µg/mL (≈ 15.2 µM); to `O=C(CCN1CCC(c2ccccc2)C1)c1cccs1` (configuration not stated), 11.5 µg/mL (≈ 40.2 µM). Regarding `COc1ccccc1C1CC(=O)C2=C(C1)NC(C)=C(C(=O)OC1CCCC1)C2c1ccc(O)cc1` (configuration not stated), the IC50 is 4.74 µg/mL (≈ 10 µM). Take `Oc1ccc(Br)cc1-c1nc(-c2cccs2)c(-c2cccs2)[nH]1`: the IC50 is 1.55 µg/mL (≈ 3.84 µM). With `O=C(N=Nc1c(O)[nH]c2ccccc12)c1ccc(Cl)cc1`, the IC50 was 46.7 µg/mL (≈ 156 µM). To `CSc1ncc(C(=O)Nc2cccc(C(F)(F)F)c2)cn1` belongs < 0.1 µg/mL; to `O=C(Nc1ccc(Cl)c(Br)c1)c1ccc(Cl)cc1Cl`, 4.23 µg/mL (≈ 11.1 µM). To `COC(=O)c1ccc(COC(=O)c2ccccc2OC)cc1` belongs 2.87 µg/mL (≈ 9.56 µM); to `Cc1ccc(OCC(=O)NC23CC4CC(CC(C4)C2)C3)cc1C`, 3.77 µg/mL (≈ 12 µM); to `Cc1cc(OCCCn2ccnc2)ccc1Cl`, 1.94 µg/mL (≈ 7.74 µM). To `O=C(Nc1ccc(N2CCCC2)c(Cl)c1)c1ccccc1F` belongs 5.78 µg/mL (≈ 18.1 µM); to `Cc1cc(C(=O)Oc2ccc(Cc3ccccc3)cc2)ccc1[N+](=O)[O-]`, 2.23 µg/mL (≈ 6.42 µM).

In the case of `O=c1c2ccccc2nc(CSc2ncnc3ccccc23)n1-c1ccc(Cl)c(Cl)c1`, the IC50 is > 50 µg/mL (inactive).

As to `Cc1cc(C)c2c(N)c3cccc(C)c3nc2n1`, the IC50 is > 50 µg/mL (inactive). To `Cc1ccc(C(=O)NCCC23CC4CC(CC(C4)C2)C3)cc1` belongs 0.18 µg/mL (≈ 0.605 µM); to `Cc1cccc(N2CCN(C3=NC(=O)C(=C4CCCCC4)S3)CC2)c1`, 0.78 µg/mL (≈ 2.19 µM). To `COC(=O)COc1ccc(NC(=O)COc2ccc(C(C)(C)C)cc2)cc1` belongs 0.17 µg/mL (≈ 0.458 µM). For `COc1cc(C(=O)Oc2ccc3c(c2)CCCC3)cc(OC)c1OC`, the IC50 is > 50 µg/mL (inactive). To `CCN(CC)C(=S)NC(=O)c1ccc(F)cc1` belongs 3.03 µg/mL (≈ 11.9 µM); to `Cc1ccc2nc(-c3ccc(N/C(N)=N\c4nc(C)cc(C)n4)cc3)sc2c1`, 25.7 µg/mL (≈ 66.2 µM). To `N#C/C(=C\C=C\c1ccco1)c1nc2c(s1)CCCC2` belongs 9.33 µg/mL (≈ 33 µM); to `Cc1cc(OCC(=O)NC2C3CC4CC(C3)CC2C4)cc(C)c1Br` (configuration not stated), 1.45 µg/mL (≈ 3.7 µM). To `O=C(Nc1ccncc1)c1ccc2nc(-c3ccccc3)c(-c3ccccc3)nc2c1` belongs 4.64 µg/mL (≈ 11.5 µM); to `CCOc1ccc(NC(=O)C(C)Oc2ccc(C)c(C)c2)cc1` (configuration not stated), 4.04 µg/mL (≈ 12.9 µM); to `CCOc1ccccc1C(=O)Nc1ccccc1O`, 8.93 µg/mL (≈ 34.7 µM). Turning to `Nc1nc2ccccc2n1CCOc1ccc(Cl)cc1Cl`, the IC50 is 3.85 µg/mL (≈ 11.9 µM). To `CC12CC3CC(C)(C1)CC(CNCc1ccccc1O)(C3)C2` belongs 2.89 µg/mL (≈ 9.65 µM); to `FC(F)(F)c1cccc(NC(=S)Nc2ccc(Cl)cc2Cl)c1`, 12.1 µg/mL (≈ 33.1 µM); to `CC(=O)c1cccc(-n2nnnc2S(C)(=O)=O)c1`, 2.75 µg/mL (≈ 10.3 µM).

As for `O=[N+]([O-])c1c(Sc2ncnc3ccccc23)ccc2nsnc12`, the IC50 was 22.2 µg/mL (≈ 65.1 µM). To `Cn1nc(-c2ccc(N3CCCCC3)c(NC(=O)c3ccco3)c2)c2ccccc2c1=O` belongs > 50 µg/mL (inactive); to `CCn1c2ccccc2c2cc(NC(=O)C34CCC(C)(C(=O)C3)C4(C)C)ccc21` (configuration not stated), 11.5 µg/mL (≈ 29.7 µM); to `N#Cc1ccc(NC(=O)CSc2ccc(Br)cc2)cc1`, 3.04 µg/mL (≈ 8.75 µM). To `Cc1ccc2cccc(OCC(=O)c3ccc(C)c(C)c3)c2n1` belongs 11.3 µg/mL (≈ 37.2 µM); to `Cc1cccc(NC(=O)Nc2ccc(C(F)(F)F)cc2)c1`, 8.07 µg/mL (≈ 27.4 µM); to `Oc1ccc(CSc2ccccc2)c2cccnc12`, 0.6 µg/mL (≈ 2.24 µM). The value for `Cc1sc2ncnc(N3CCN(CCOc4ccc(Cl)cc4)CC3)c2c1C` was > 50 µg/mL (inactive). In the case of `COC(=O)COc1ccc(NC(=O)COc2ccc(C)c(C)c2)cc1`, the IC50 was 3.35 µg/mL (≈ 9.76 µM).
